US20260365670A1, “EGFR INHIBITORS AND USES THEREOF” (DIZAL (JIANGSU) PHARMACEUTICAL CO., LTD., priority 2022, published 2026)
Read-outs that look alike come from different tables or passages of the source.

What was measured:
[1] = target: T1, EGFR L858R (Homo sapiens, UniProt P00533, L858R); experiment: Inhibition of EGFR L858R biochemical enzymatic activity (HTRF); details: 1 mM ATP, 1 h, room temperature, read-out: IC50 (nM) @L858R
T1 construct: purchased Carna Bio
Procedure, shortened: (§1)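 Kinase activity is measured by HTRF detection of biotinylated TK substrate (1 μM) phosphorylation at 1 mM ATP. Incubation lasts 1 h at room temperature before an EDTA stop, and IC50 is fitted with a four-parameter logistic model.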

[2] = target: T2, EGFR Exon19Del (Homo sapiens, UniProt P00533, DEL746-750); experiment: Inhibition of EGFR Exon19Del biochemical enzymatic activity (HTRF); details: EGFR Del19, 1 mM ATP, 1 h, room temperature, read-out: IC50 @Del19
T2 construct: purchased Carna Bio
Procedure, shortened: as §1

[3] = target: T3, EGFR (C797S L858R) (Homo sapiens, UniProt P00533, C797S/L858R); experiment: Inhibition of EGFR (C797S L858R) biochemical enzymatic activity (HTRF); details: EGFR L858-C797S, 1 mM ATP, 1 h, room temperature, read-out: IC50 (nM) @L858-C797S
T3 construct: purchased signalchem
Procedure, shortened: as §1

[4] = target: T4, EGFR[T790M/C797S/d746-750] (Homo sapiens, UniProt P00533, C797S/DEL746-750/T790M); experiment: Inhibition of EGFR[T790M/C797S/d746-750] biochemical enzymatic activity (HTRF); details: EGFR T790M-C797S-Del19, 1 mM ATP, 1 h, room temperature, read-out: IC50 (nM) @T790M - C797S - Del19
T4 construct: purchased Carna Bio
T4 sequence (P00533 with tags, fused parts or gaps DEL746-750/T790M/C797S limits assumed): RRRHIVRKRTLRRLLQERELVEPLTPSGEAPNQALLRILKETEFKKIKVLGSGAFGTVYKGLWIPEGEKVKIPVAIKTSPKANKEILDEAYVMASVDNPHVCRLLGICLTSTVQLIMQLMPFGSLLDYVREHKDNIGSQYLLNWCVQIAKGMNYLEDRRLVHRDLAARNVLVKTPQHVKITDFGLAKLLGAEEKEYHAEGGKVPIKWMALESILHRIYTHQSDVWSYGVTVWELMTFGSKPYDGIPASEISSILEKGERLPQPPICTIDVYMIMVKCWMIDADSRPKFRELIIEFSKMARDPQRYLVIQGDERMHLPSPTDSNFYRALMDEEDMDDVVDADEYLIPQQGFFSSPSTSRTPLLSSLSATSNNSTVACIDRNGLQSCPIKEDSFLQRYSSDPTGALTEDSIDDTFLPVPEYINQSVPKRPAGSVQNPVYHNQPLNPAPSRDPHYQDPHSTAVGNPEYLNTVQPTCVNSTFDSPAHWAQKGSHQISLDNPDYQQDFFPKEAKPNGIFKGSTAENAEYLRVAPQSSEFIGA
Procedure, shortened: as §1

[5] = target: T5, EGFR wild type (Homo sapiens, UniProt P00533); experiment: Inhibition of EGFR wild type biochemical enzymatic activity (HTRF); details: EGFR WT, 1 mM ATP, 1 h, room temperature, read-out: IC50 (nM) @WT
T5 construct: purchased Carna Bio
T5 sequence (P00533 25-1210): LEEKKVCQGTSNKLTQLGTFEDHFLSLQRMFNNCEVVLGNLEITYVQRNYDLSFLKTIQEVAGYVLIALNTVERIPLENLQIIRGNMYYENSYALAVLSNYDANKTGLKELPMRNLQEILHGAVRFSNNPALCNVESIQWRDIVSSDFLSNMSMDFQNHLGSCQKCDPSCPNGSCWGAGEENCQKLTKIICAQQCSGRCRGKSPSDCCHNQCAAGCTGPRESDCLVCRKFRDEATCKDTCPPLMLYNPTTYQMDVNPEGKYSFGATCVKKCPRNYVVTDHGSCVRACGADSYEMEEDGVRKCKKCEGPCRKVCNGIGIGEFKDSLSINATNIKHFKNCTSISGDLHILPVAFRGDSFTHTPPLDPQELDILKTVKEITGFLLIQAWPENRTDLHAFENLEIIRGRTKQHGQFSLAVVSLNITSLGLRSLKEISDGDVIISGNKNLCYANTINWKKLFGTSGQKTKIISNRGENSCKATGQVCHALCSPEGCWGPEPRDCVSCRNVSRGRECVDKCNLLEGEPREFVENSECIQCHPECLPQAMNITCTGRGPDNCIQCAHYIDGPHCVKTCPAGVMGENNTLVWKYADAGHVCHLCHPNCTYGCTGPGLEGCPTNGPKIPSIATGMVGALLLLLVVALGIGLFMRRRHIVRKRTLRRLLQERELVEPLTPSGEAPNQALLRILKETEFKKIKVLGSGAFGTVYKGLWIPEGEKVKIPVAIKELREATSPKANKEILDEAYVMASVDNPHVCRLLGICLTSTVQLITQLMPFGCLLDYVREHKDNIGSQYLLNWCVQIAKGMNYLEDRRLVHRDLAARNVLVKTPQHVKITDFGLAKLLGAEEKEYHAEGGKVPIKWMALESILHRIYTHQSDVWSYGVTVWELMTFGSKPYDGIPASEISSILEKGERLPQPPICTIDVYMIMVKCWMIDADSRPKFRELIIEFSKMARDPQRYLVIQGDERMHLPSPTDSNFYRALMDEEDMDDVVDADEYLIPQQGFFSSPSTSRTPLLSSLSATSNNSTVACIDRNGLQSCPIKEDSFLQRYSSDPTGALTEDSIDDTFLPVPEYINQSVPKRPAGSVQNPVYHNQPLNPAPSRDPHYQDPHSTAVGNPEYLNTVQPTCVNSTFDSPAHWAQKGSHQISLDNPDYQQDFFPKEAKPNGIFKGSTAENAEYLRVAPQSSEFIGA
Procedure, shortened: as §1

[6] = target: T6, EGFR L858R/T790M (Homo sapiens, UniProt P00533, L858R/T790M); experiment: Inhibition of EGFR L858R/T790M biochemical enzymatic activity (HTRF); details: EGFR L858R-T790M, 1 mM ATP, 1 h, room temperature, read-out: IC50 (nM) @L858R-T790M
T6 construct: purchased Carna Bio
T6 sequence (P00533 25-1210 T790M/L858R): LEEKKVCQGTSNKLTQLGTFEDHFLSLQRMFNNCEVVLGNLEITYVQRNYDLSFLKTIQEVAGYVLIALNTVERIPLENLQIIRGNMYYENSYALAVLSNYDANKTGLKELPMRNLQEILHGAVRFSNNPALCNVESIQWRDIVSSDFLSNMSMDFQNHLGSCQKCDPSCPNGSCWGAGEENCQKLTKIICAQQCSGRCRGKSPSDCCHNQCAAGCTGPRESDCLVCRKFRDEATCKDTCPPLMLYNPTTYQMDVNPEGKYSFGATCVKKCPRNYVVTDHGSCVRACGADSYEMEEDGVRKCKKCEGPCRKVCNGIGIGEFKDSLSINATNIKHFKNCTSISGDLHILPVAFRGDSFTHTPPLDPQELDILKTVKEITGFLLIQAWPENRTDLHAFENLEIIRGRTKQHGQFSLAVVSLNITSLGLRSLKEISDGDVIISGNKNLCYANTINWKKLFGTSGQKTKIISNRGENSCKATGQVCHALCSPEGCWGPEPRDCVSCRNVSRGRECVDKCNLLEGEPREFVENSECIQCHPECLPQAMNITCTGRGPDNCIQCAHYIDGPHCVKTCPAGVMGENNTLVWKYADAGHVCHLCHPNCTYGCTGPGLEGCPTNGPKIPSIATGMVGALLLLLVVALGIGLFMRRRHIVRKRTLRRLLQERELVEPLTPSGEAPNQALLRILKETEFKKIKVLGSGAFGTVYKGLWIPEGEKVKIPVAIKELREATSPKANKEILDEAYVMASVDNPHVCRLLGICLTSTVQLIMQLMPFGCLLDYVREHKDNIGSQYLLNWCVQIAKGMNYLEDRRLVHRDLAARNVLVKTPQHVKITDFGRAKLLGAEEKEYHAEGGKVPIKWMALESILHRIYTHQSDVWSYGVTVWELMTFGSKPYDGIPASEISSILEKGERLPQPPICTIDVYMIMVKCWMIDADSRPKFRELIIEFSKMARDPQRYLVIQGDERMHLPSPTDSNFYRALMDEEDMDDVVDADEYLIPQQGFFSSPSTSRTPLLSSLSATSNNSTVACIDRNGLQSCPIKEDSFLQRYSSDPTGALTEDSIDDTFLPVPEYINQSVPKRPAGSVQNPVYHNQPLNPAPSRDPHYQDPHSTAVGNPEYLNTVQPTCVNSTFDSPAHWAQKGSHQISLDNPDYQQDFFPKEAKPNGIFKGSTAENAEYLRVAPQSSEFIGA
Procedure, shortened: as §1

[7] = target: T7, EGFR[T790M/C797S/L858R] (Homo sapiens, UniProt P00533, C797S/L858R/T790M); experiment: Inhibition of EGFR[T790M/C797S/L858R] biochemical enzymatic activity (HTRF); details: EGFR T790M-C797S-L858R, 1 mM ATP, 1 h, room temperature, read-out: IC50 (nM) @T790M- C797S - L858R
T7 construct: purchased Carna Bio
T7 sequence (P00533 25-1210 T790M/C797S/L858R): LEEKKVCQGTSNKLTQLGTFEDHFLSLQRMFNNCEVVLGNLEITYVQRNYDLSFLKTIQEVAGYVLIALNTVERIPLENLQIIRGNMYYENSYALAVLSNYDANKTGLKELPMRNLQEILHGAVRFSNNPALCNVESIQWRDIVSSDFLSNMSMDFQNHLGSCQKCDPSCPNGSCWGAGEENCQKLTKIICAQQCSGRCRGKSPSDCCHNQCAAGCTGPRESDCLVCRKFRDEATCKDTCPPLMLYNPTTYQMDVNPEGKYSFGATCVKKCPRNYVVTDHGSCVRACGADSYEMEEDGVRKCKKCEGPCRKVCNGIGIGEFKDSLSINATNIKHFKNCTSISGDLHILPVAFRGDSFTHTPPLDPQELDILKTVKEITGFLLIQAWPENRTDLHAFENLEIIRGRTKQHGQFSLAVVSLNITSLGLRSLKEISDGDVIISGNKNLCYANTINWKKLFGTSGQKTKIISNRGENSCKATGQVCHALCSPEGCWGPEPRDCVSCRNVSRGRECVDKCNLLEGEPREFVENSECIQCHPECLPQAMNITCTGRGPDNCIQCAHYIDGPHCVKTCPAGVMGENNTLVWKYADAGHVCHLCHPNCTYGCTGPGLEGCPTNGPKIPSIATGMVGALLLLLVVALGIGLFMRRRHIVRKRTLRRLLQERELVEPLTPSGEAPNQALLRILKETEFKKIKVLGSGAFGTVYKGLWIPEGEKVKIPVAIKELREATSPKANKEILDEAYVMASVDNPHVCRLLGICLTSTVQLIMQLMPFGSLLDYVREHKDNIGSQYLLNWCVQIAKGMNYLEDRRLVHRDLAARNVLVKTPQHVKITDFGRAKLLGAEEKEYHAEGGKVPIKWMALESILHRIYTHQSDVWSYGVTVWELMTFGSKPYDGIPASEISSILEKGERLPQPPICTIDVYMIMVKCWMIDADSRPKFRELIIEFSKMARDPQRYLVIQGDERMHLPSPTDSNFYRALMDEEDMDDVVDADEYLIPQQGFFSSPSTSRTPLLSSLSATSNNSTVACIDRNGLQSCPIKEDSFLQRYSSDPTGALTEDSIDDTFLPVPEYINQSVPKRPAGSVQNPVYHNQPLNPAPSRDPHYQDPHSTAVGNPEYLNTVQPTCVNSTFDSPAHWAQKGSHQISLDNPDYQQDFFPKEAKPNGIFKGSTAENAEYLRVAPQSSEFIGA
Procedure, shortened: as §1

[8] = system: Ba/F3 cells expressing EGFR mutations; experiment: Cell proliferation assay, Ba/F3 cells expressing EGFR mutations (CellTiter-Glo, 72 hours); type: cell-based; details: CellTiter-Glo
Procedure, shortened: (§2)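 GI50 is the concentration giving 50% proliferation inhibition. Growth for this was normalised to a baseline viability reading taken when compound was added, and to DMSO wells. PC-9 (500 cells/well) and mutant-EGFR Ba/F3 (5000 cells/well) are treated after overnight seeding in RPMI1640-based medium.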

[9] = target: T8, EGFR Exon19Del/T790M (Homo sapiens, UniProt P00533, DEL746-750/T790M); experiment: Inhibition of EGFR Exon19Del/T790M biochemical enzymatic activity (HTRF); details: EGFR Del19-T790M, 1 mM ATP, 1 h, room temperature, read-out: IC50 (nM) @Del19-T790M
T8 construct: purchased Carna Bio
Procedure, shortened: as §1

[10] = target: T9, EGFR (d746-750 C797S) (Homo sapiens, UniProt P00533, C797S/DEL746-750); experiment: Inhibition of EGFR (d746-750 C797S) biochemical enzymatic activity (HTRF); details: EGFR Del19-C797S, 1 mM ATP, 1 h, room temperature, read-out: IC50 (nM) @Del19-C797S
T9 construct: purchased signalchem
T9 sequence (P00533 with tags, fused parts or gaps DEL746-750/C797S limits assumed): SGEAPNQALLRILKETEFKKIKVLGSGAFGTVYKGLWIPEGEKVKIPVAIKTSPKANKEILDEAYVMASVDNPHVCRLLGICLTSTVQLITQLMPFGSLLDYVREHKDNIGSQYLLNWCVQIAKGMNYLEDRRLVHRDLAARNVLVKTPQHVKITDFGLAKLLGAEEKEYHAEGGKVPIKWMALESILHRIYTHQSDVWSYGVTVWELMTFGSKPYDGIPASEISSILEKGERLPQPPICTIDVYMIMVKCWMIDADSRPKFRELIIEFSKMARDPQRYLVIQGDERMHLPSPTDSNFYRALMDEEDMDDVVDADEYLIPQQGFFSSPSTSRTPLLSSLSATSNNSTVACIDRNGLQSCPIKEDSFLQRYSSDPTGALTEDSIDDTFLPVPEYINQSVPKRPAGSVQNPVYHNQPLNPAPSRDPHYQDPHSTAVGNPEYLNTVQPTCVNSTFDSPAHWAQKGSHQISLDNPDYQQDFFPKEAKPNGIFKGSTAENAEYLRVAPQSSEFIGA
Procedure, shortened: as §1

[11] = system: A-431; experiment: Cell proliferation GI50, A-431 cells (Table 6); type: cell-based
[12] = system: PC-9; experiment: Cell proliferation assay, PC-9 cells (CellTiter-Glo, 72 hours); type: cell-based; details: PC9 cells, CellTiter-Glo, read-out: PC9 GI50
Procedure, shortened: as §2

[13] = Mus musculus, BaF3, 72 h, BaF3 cells, EGFR DEL19-C797S, read-out: DEL19-C797S/BaF3 GI50
[14] = Mus musculus, BaF3, 72 h, BaF3 cells, EGFR DEL19-T790-C797S, read-out: DEL19-T790-C797S/BaF3 GI50
[15] = Mus musculus, BaF3, 72 h, BaF3 cells, EGFR L858R, read-out: L858R/BaF3 GI50
[16] = Mus musculus, BaF3, 72 h, BaF3 cells, EGFR L858R-C797S, read-out: L858R-C797S/BaF3 GI50
[17] = Mus musculus, BaF3, 72 h, BaF3 cells, EGFR L858R-T790-C797S, read-out: L858R-T790-C797S/BaF3 GI50
[18] = Mus musculus, BaF3, 72 h, BaF3 cells, EGFR L858R-T790M, read-out: L858R-T790M/BaF3 GI50
[19] = Mus musculus, BaF3, 72 h, EGFR DEL19-T790M, read-out: DEL19-T790M GI50
[20] = Homo sapiens, A-431, A-431 cells
[21] = BaF3 cells, EGFR DEL19-C797S, read-out: DEL19-C797S/BaF3 GI50
[22] = BaF3 cells, EGFR DEL19-T790-C797S, read-out: DEL19-T790-C797S/BaF3 GI50
[23] = BaF3 cells, EGFR L858R, read-out: L858R/BaF3 GI50
[24] = BaF3 cells, EGFR L858R-C797S, read-out: L858R-C797S/BaF3 GI50
[25] = BaF3 cells, EGFR L858R-T790-C797S, read-out: L858R-T790-C797S/BaF3 GI50
[26] = BaF3 cells, EGFR L858R-T790M, read-out: L858R-T790M/BaF3 GI50
[27] = EGFR DEL19-T790M, read-out: DEL19-T790M GI50

Row | Structure (SMILES) | IC50 [1] [nM] | IC50 [2] [nM] | IC50 [3] [nM] | IC50 [4] [nM] | IC50 [5] [nM] | IC50 [6] [nM] | IC50 [7] [nM] | GI50 [8, 13] [nM] | GI50 [8, 14] [nM] | GI50 [8, 15] [nM] | GI50 [8, 16] [nM] | GI50 [8, 17] [nM] | GI50 [8, 18] [nM] | GI50 [8, 19] [nM] | IC50 [9] [nM] | IC50 [10] [nM] | GI50 [11, 20] [nM] | GI50 ([12]; Homo sapiens, PC-9, 72 h) [nM] | GI50 [8, 21] [nM] | GI50 [8, 22] [nM] | also measured
1 | CN1CCN(c2ccc3nc4n(c3c2)CCN(CC(F)(F)F)CCOc2c(cnn2C)-c2cc(cn(C)c2=O)C(=O)N4)CC1 [Example A3, 5,26-Dimethyl-16-(4-methylpiperazin-1-yl)-10-(2,2,2-trifluoroethyl)-7-oxa-4,5,10,13,20,22,26-heptaazapentacyclo[22.3.1.0^{2,6}.0^{13,21}.0^{14,19}]octacosa-1(28),2(6),3,14,16,18,20,24-octaene-23,27-dione] | 13 | 12 | 10 | 8.9 | 104 | 12 | 8.5 | 16 | 124 | 9.7 | 11 | 22 | 30 | 128 | 9.3 | 6.7 | 1290 | 236 | – | – | –
2 | CN(C)CCCN(C)c1ccc2nc3n(c2c1)C12CCC(CN(CCOc4c(cnn4C)-c4cc(cn(C)c4=O)C(=O)N3)C1)C2 (single isomer, unassigned) [Example A89A] | 3600 | 250 | > 5000 | > 5000 | > 5000 | > 5000 | > 5000 | – | – | – | – | – | – | – | > 5000 | 573 | – | – | 103 | 178 | GI50 [8, 23]: 135 nM; GI50 [8, 24]: 165 nM; GI50 [8, 25]: 280 nM; GI50 [8, 26]: 367 nM; GI50 [8, 27]: 115 nM; GI50 ([11]; A-431 cells): 6390 nM; GI50 [12]: 791 nM
3 | C[C@@H]1CCCOc2c(cnn2C)-c2cc(cn(C)c2=O)C(=O)Nc2nc3ccc(N4CCC(N(C)C)C4)cc3n2C1 (stereo partly drawn) [Example A27, (11R)-16-[3-(Dimethylamino)pyrrolidin-1-yl]-5,11,26-trimethyl-7-oxa-4,5,13,20,22,26-hexaazapentacyclo[22.3.1.0^{2,6}.0^{13,21}.0^{14,19}]octacosa-1(28),2(6),3,14,16,18,20,24-octaene-23,27-dione] | 25 | 6.1 | 21 | 13 | 290 | 26 | 20 | 1.2 | 1.9 | 3 | 7.1 | 2.2 | 6.8 | 3.5 | 15 | 5.5 | 453 | 21 | – | – | –
4 | CN1CCN(c2ccc3nc4n(c3c2)CC2(CCCOc3c(cnn3C)-c3cc(cn(C)c3=O)C(=O)N4)CC2)CC1 [Example A18, 5′,26′-dimethyl-16′-(4-methylpiperazin-1-yl)-7′-oxa-4′,5′,13′,20′,22′,26′-hexaazaspiro[cyclopropane-1,11′-pentacyclo[22.3.1.0^{2,6}.0^{13,21}.0^{14,19}]octacosan]-1′(28′),2′(6′),3′,14′,16′,18′,20′,24′-octaene-23′,27′-dione] | 1370 | 54 | 929 | 44 | > 5000 | 1140 | 1720 | 52.9 | 246 | 194 | 169 | 309 | 249 | 187 | 41 | 91 | 377 | 565 | – | – | –

Further lines, with some results ahead:

Row | IC50 [1] [nM] | IC50 [2] [nM] | IC50 [3] [nM] | IC50 [4] [nM] | IC50 [5] [nM] | IC50 [6] [nM] | IC50 [7] [nM] | GI50 [8, 13] [nM] | GI50 [8, 14] [nM] | GI50 [8, 15] [nM] | GI50 [8, 16] [nM] | GI50 [8, 17] [nM] | GI50 [8, 18] [nM] | GI50 [8, 19] [nM] | IC50 [9] [nM] | IC50 [10] [nM] | GI50 [11, 20] [nM] | GI50 ([12]; Homo sapiens, PC-9, 72 h) [nM] | GI50 [8, 21] [nM] | GI50 [8, 22] [nM] | Structure (SMILES) | also measured
5 | > 5000 | 368 | 3550 | 226 | > 5000 | > 5000 | > 5000 | 93 | 401 | 180 | 332 | 214 | 977 | 256 | 290 | 256 | 3880 | 180 | – | – | Cn1ncc2c1OCCN1CCCCC(C1)n1c(nc3ccccc31)NC(=O)c1cc-2c(=O)n(C)c1 (stereo not drawn) [Example A8, 15,21-Dimethyl-23-oxa-2,9,11,15,20,21,26-heptaazahexacyclo[24.4.1.1^{13,17}.0^{2,10}.0^{3,8}.0^{18,22}]dotriaconta-3,5,7,9,13,17(32),18(22),19-octaene-12,16-dione] | –
6 | 6.3 | 1.3 | 4.7 | 3.4 | 54 | 6.6 | 3.9 | 1.3 | 6.3 | 8.1 | 8.4 | 9.6 | 13.1 | 9.6 | 3.5 | 1.4 | 480 | 15.4 | – | – | C[C@@H]1CCCOc2c(cnn2C)-c2cc(cn(C)c2=O)C(=O)Nc2nc3ccc(N4CCC5(CC4)CCN5C)cc3n2C1 [Example A52] | –
7 | 4680 | 1280 | > 5000 | > 5000 | > 5000 | > 5000 | > 5000 | – | – | – | – | – | – | – | > 5000 | 1390 | 1940 | – | 217 | 503 | Cn1ncc2c1OCCN1CC3CCC(C3)(C1)n1c(nc3ccc(N4CCC(N5CCOCC5)C4)cc31)NC(=O)c1cc-2c(=O)n(C)c1 (single isomer, unassigned) [Example A104A] | GI50 [8, 23]: 795 nM; GI50 [8, 24]: 402 nM; GI50 [8, 25]: 675 nM; GI50 [8, 26]: 1000 nM; GI50 [8, 27]: 473 nM; GI50 [12]: 568 nM
8 | 7.3 | 1.6 | 3.8 | 1.7 | 110 | 1.8 | 1.5 | – | – | – | – | – | – | – | 2.2 | 1 | 354 | – | 0.76 | 3.5 | CN1CC2CC1CN2c1ccc2nc3n(c2c1)C12CCC(CN(CCOc4c(cnn4C)-c4cc(cn(C)c4=O)C(=O)N3)C1)C2 (single isomer, unassigned) [Example A105B] | GI50 [8, 23]: 7.9 nM; GI50 [8, 24]: 3.8 nM; GI50 [8, 25]: 7 nM; GI50 [8, 26]: 15 nM; GI50 [8, 27]: 4.9 nM; GI50 [12]: 13 nM
